Experimental data: the Deep4Chem optical property database
Blank lines part the entries; values can stand above or below the compound they belong to.

Experiment: solvent given as SMILES

absorption maximum (in ClCCl): 377 nm
Structure (SMILES): CC(C)(C)c1ccc2c(c1)c1cc(C(C)(C)C)ccc1n2-c1ccc(C#Cc2ccc3c4ccc(C#Cc5ccc(C=O)cc5)cc4n(-c4ccc(C(F)(F)F)cc4)c3c2)cc1

absorption maximum (in C1CCCCC1): 325 nm
Structure (SMILES): C#Cc1ccc(C#Cc2cnc(C#Cc3ccccc3)nc2)cc1

absorption maximum (in CS(C)=O): 344 nm
Structure (SMILES): Fc1ccccc1-c1nc2sc3ccccc3c2s1

absorption maximum (in C1COCCO1): 342 nm | absorption maximum (in CC#N): 340 nm | absorption maximum (in CCCCO): 350 nm | absorption maximum (in CCCO): 350 nm | absorption maximum (in CCO): 349 nm | absorption maximum (in CCOC(C)=O): 343 nm | absorption maximum (in CO): 346 nm
Structure (SMILES): Cc1cnc(NC(=O)C2=C(O)c3ccccc3S(=O)(=O)N2C)s1

Structure (SMILES): O=C(c1ccncc1)c1ccc(-n2c3ccccc3c3ccccc32)cc1
absorption maximum (in C1CCOC1): 353.15 nm | absorption maximum (in CCCCCC): 354.95 nm | absorption maximum (in Cc1ccccc1): 359 nm | absorption maximum (in ClCCl): 359.23 nm

absorption maximum (in ClCCl): 352 nm
Structure (SMILES): Cc1cccc2nc(-c3cc(=O)c(OCc4ccccc4)co3)c(NC3CCCCC3)n12

absorption maximum (in ClCCl): 456 nm
Structure (SMILES): CC(C)(C)c1ccc(-c2cc3c(-c4ccc(C(C)(C)C)cc4)c4cccc5c(-c6ccc(C(C)(C)C)cc6)cc6c(-c7ccc(C(C)(C)C)cc7)c7cccc2c7c3c6c54)cc1

absorption maximum (in ClCCl): 394 nm
Structure (SMILES): Cc1ccc(C2=Nc3cccc4[n+]3[B-](F)(O2)OC(c2ccc(C)cc2)=N4)cc1

Structure (SMILES): CN(C)c1ccc(-c2c(/C=C3/C=Cc4ccccc4N3C)c(=O)c2=O)cc1
absorption maximum (in C1CCCCC1): 358 nm | absorption maximum (in Cc1ccccc1): 362 nm | absorption maximum (in ClCCl): 509 nm

Structure (SMILES): CCCC1=Cc2nc1ccc1[nH]c(cc1CCC)c1nc(c(OC(=O)CCCC(=O)OC(C)(C)C)cc3[nH]c2cc3CCC)C(CCC)=C1
absorption maximum (in Cc1ccccc1): 645 nm

absorption maximum (in CC#N): 371 nm
Structure (SMILES): CN(C)c1ccc(-c2nc3nccnc3n2-c2ccc(N(C)C)cc2)cc1

absorption maximum (in ClCCl): 345 nm
Structure (SMILES): c1ccc(-n2c3ccccc3c3cc(-c4cccc(-n5c6ccccc6c6ncccc65)c4)ccc32)cc1

Structure (SMILES): O=P1(c2ccccc2)C(c2cc(C(F)(F)F)cc(C(F)(F)F)c2)=Cc2c3ccc4cccc5ccc(c6cc(-c7ccccc7)n1c26)c3c45 (stereo not given)
absorption maximum (in C1CCCCC1): 451 nm | absorption maximum (in C1CCOC1): 451 nm | absorption maximum (in C1COCCO1): 448 nm | absorption maximum (in CC#N): 445 nm | absorption maximum (in CC(C)=O): 446 nm | absorption maximum (in CO): 444 nm | absorption maximum (in Cc1ccccc1): 453 nm | absorption maximum (in ClC(Cl)Cl): 452 nm | absorption maximum (in ClCCl): 450 nm

absorption maximum (in C1CCCCC1): 316 nm
Structure (SMILES): C[Si](C)(C)C#Cc1cccc2ccccc12

absorption maximum (in C1COCCO1): 709 nm | absorption maximum (in CCO): 696 nm | absorption maximum (in CN(C)C=O): 696 nm | absorption maximum (in ClC(Cl)Cl): 704 nm
Structure (SMILES): CCCCCCCN1C(=CC2=C([O-])C(=Cc3sc4ccccc4[n+]3CCCCCCC)C2=C(C#N)C#N)Sc2ccccc21

Structure (SMILES): CC1(C)c2ccccc2N(c2ccc(-c3ccc(C#N)cc3)cc2)c2ccccc21
absorption maximum (in Cc1ccccc1): 358 nm

absorption maximum (in CC#N): 474 nm
Structure (SMILES): Oc1ccc2ccccc2c1/C=N/c1cc2ccccc2cc1/N=C/c1c(O)ccc2ccccc12

absorption maximum (in C1CCOC1): 380.5 nm | absorption maximum (in CC#N): 381 nm | absorption maximum (in CCO): 385 nm | absorption maximum (in CN(C)C=O): 389 nm | absorption maximum (in CO): 384.5 nm | absorption maximum (in CS(C)=O): 387.5 nm
Structure (SMILES): CCOC(=O)c1sc(SC)c2c(=O)[nH]nnc12

absorption maximum (in ClCCl): 446 nm
Structure (SMILES): COc1ccc(C#CC2=C3CCc4ccccc4C3=[O+][B-](F)(F)O2)cc1

absorption maximum (in ClC(Cl)Cl): 332.1 nm
Structure (SMILES): COc1ccc(-c2cc3c4c(c2)CCc2cc(-c5ccc(OC)cc5)cc(c2-4)CC3)cc1

absorption maximum (in c1ccccc1): 344 nm
Structure (SMILES): O=c1oc2ccccc2nc1-c1ccc(Cl)cc1

Structure (SMILES): C#CCN1C(=O)/C(=C/c2cc(OC(C)C)ccc2OC(C)C)N=C1C
absorption maximum (in C1COCCO1): 396 nm | absorption maximum (in CC#N): 395 nm | absorption maximum (in CC(C)=O): 394 nm | absorption maximum (in CCCCCC): 392 nm | absorption maximum (in CCCCO): 400 nm | absorption maximum (in CCCO): 400 nm | absorption maximum (in CCO): 399 nm | absorption maximum (in CCOC(C)=O): 393 nm | absorption maximum (in CN(C)C=O): 399 nm | absorption maximum (in CO): 398 nm | absorption maximum (in CS(C)=O): 401 nm

absorption maximum (in CC#N): 355 nm | absorption maximum (in CCCCCC): 359 nm | absorption maximum (in CO): 346 nm | absorption maximum (in CS(C)=O): 366 nm | absorption maximum (in ClC(Cl)Cl): 353 nm
Structure (SMILES): C/C(=N\Nc1ccc(C#N)cc1)c1cccc(/C(C)=N/Nc2ccc(C#N)cc2)c1

absorption maximum (in C1CCCCC1): 324 nm | absorption maximum (in CC#N): 323 nm | absorption maximum (in CCO): 323 nm | absorption maximum (in ClCCl): 325 nm
Structure (SMILES): [BH3-][P+]1(c2ccccc2)c2ccccc2-c2sc3ccccc3c21 (stereo not given)

absorption maximum (in ClC(Cl)Cl): 407 nm
Structure (SMILES): CCCCCCN1C(=O)c2cccc3c(-c4ccc(OC)s4)ccc(c23)C1=O

absorption maximum (in CC#N): 404 nm
Structure (SMILES): CCOC(=O)c1c2c3c(ccc(Br)c3c3cc4ccccc4cc13)N(C)C2=O

Structure (SMILES): C(=C\c1nc2ccccc2[nH]1)/c1ccc(/C=C/c2nc3ccccc3[nH]2)cc1
absorption maximum (in C1CCOC1): 389 nm | absorption maximum (in CC#N): 382 nm | absorption maximum (in CC(C)=O): 395 nm | absorption maximum (in CN(C)C=O): 390 nm | absorption maximum (in CO): 384 nm | absorption maximum (in CS(C)=O): 392 nm

absorption maximum (in C1CCOC1): 342 nm
Structure (SMILES): COC(=O)c1ccc(-c2ccc3c(c2)C(=O)c2cc(-c4ccc(C(=O)OC)cc4)ccc2-3)cc1

absorption maximum (in CC#N): 322 nm | absorption maximum (in CO): 324 nm
Structure (SMILES): FC(F)(F)c1ccc2c(c1)Nc1ccccc1S2

absorption maximum (in ClCCl): 430 nm
Structure (SMILES): FC(F)(F)c1ccc(/C=C/c2nc(/C=C/c3ccc(N(c4ccccc4)c4ccccc4)cc3)cc(/C=C/c3ccc(N(c4ccccc4)c4ccccc4)cc3)n2)cc1

Structure (SMILES): CCCC1=Cc2nc1ccc1[nH]c(cc1CCOC)c1nc(ccc3[nH]c2cc3CCC)C(CCC)=C1
absorption maximum (in Cc1ccccc1): 637 nm

absorption maximum (in C1CCCCC1): 517 nm
Structure (SMILES): c1ccc(-c2cc3cccc[n+]3[b-]3ccc(-c4cc[b-]5c(c4)c(-c4ccccc4)cc4cccc[n+]54)cc32)cc1

absorption maximum (in ClCCl): 436 nm
Structure (SMILES): COC(=O)c1[nH]c(-c2ccc([N+](=O)[O-])cc2)c2nnc3ccc(OC)cc3c12

absorption maximum (in C1COCCO1): 406 nm
Structure (SMILES): COc1ccc(C2=C/C(=C\c3ccccc3)C(=O)O2)cc1OC

absorption maximum (in ClCCl): 327 nm
Structure (SMILES): CCCCCCOc1ccc2c(c1)-c1cc3c(cc1[Si]2(C)C)-c1ccccc1[Si]3(C)C

absorption maximum (in C1CCCCC1): 283 nm
Structure (SMILES): COc1ccc(C2=C(c3ccc(OC)cc3)C(C)(C)c3ccccc32)cc1

absorption maximum (in ClCCl): 448 nm
Structure (SMILES): CCCCN(CCCC)c1ccc(C#Cc2cc(C#Cc3ccc([N+](=O)[O-])cc3)c(C#Cc3ccc(N(CCCC)CCCC)cc3)cc2C#Cc2ccc([N+](=O)[O-])cc2)cc1

absorption maximum (in CC#N): 380 nm
Structure (SMILES): Cc1cc2nc3[nH]c(=O)[nH]c(=O)c3nc2cc1C

absorption maximum (in ClCCl): 470 nm
Structure (SMILES): CCCc1ccc(C#Cc2cc(C#Cc3ccc(CCC)cc3)c3ccc4c(C#Cc5ccc(CCC)cc5)cc(C#Cc5ccc(CCC)cc5)c5ccc2c3c54)cc1

absorption maximum (in ClCCl): 530 nm
Structure (SMILES): CC[C@H](C)COc1ccc(C2=C3C(C)=C(c4ccc5ccc6cccc7ccc4c5c67)C(C)=[N+]3[B-](F)(F)n3c(C)c(-c4ccc5ccc6cccc7ccc4c5c67)c(C)c32)cc1

Structure (SMILES): O=Cc1cc(C=O)c2ccc3c(N4CCCCC4)cc(N4CCCCC4)c4ccc1c2c43
absorption maximum (in C1COCCO1): 512 nm | absorption maximum (in CC#N): 525 nm | absorption maximum (in CC(C)=O): 521 nm | absorption maximum (in CCCCCC): 498 nm | absorption maximum (in CCO): 522 nm | absorption maximum (in CCOC(C)=O): 514 nm | absorption maximum (in CO): 523 nm | absorption maximum (in CS(C)=O): 535 nm | absorption maximum (in Cc1ccccc1): 516 nm | absorption maximum (in ClCCl): 534 nm
